In PMC6704710, “Preclinical evaluation of 3D185, a novel potent inhibitor of FGFR1/2/3 and CSF-1R, in FGFR-dependent and macrophage-dominant cancer models” (Journal of Experimental & Clinical Cancer Research : CR, 2019):

Experiments:
Assay in all cases: Eurofins kinase panel
Type in all cases: biochemical
Conditions in all cases: read-out: Inhibition rate (%)
[1] = molecular target: T1, PI3 Kinase (p110α(E542K)/p85α)(h) (Homo sapiens, UniProt P42336, E542K)
T1 construct: purchased Eurofins (KinaseProfiler)
T1 sequence (P42336 whole entry E542K): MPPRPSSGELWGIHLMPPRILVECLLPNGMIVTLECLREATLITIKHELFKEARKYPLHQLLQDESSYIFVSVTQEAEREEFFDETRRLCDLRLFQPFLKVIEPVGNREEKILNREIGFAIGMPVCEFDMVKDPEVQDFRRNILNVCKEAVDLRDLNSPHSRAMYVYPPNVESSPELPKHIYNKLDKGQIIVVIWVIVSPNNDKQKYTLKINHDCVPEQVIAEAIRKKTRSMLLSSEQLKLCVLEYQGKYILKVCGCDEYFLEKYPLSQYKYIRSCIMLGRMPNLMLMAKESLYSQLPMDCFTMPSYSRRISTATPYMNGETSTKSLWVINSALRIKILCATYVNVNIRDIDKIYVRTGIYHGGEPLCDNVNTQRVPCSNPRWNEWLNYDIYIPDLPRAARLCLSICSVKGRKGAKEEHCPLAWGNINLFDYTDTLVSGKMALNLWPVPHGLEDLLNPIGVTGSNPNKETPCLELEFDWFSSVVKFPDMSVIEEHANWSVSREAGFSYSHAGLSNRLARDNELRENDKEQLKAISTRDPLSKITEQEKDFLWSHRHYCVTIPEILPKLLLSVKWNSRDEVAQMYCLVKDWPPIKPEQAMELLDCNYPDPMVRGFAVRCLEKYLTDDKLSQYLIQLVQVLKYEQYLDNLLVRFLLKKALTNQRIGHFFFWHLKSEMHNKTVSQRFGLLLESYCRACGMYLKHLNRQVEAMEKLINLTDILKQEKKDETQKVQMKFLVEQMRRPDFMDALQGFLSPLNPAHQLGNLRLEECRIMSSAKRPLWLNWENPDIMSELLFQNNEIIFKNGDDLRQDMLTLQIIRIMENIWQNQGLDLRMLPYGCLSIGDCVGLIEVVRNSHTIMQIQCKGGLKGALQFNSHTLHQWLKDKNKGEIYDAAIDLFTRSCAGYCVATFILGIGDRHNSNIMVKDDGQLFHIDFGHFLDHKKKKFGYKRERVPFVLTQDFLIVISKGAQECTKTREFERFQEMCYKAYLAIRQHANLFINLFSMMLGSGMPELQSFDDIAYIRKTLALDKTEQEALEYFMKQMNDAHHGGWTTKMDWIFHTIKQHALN
T1 sequence (P27986 whole entry partner): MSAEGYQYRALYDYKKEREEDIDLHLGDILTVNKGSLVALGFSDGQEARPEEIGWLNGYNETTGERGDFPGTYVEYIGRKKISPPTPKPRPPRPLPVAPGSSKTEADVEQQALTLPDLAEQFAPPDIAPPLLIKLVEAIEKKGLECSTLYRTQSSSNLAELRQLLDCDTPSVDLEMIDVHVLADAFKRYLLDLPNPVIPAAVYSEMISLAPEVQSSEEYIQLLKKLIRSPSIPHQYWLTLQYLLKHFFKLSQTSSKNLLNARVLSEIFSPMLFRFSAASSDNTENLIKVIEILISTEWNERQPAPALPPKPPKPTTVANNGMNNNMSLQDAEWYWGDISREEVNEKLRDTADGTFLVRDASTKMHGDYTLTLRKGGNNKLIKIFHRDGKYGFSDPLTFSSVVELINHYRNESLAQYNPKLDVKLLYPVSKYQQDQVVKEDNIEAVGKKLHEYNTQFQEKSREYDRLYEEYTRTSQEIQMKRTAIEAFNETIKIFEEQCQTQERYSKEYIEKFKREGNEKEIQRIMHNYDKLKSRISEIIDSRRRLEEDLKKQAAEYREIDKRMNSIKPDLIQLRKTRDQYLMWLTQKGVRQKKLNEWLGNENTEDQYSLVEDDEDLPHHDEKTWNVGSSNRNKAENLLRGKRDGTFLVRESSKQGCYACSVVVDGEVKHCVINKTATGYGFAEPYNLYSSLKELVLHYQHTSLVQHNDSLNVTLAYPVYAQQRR

IRAK1(h) = molecular target: T2, IRAK1(h) (Homo sapiens, UniProt P51617)
T2 construct: purchased Eurofins (KinaseProfiler)
T2 sequence (P51617 whole entry): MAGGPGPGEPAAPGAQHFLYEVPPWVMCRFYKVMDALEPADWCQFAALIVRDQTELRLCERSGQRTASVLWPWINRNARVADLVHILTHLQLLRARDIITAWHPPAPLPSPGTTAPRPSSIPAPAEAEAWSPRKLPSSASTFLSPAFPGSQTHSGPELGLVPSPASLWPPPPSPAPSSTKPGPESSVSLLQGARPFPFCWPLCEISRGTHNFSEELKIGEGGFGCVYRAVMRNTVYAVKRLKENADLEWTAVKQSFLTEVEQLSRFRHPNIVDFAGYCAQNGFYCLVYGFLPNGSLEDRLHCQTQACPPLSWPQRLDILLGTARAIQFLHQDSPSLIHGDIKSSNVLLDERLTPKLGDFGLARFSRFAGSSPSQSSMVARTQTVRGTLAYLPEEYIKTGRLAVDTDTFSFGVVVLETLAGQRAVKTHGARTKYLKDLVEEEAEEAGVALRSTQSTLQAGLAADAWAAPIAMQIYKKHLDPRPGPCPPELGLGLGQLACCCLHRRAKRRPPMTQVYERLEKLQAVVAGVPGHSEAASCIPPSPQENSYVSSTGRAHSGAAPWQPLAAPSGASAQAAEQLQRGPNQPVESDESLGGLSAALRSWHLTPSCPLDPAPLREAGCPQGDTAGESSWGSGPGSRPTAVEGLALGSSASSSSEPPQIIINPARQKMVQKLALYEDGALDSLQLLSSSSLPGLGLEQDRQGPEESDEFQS

Pim-2(h) = molecular target: T3, Pim-2(h) (Homo sapiens, UniProt Q9P1W9)
T3 construct: purchased Eurofins (KinaseProfiler)
T3 sequence (Q9P1W9 whole entry): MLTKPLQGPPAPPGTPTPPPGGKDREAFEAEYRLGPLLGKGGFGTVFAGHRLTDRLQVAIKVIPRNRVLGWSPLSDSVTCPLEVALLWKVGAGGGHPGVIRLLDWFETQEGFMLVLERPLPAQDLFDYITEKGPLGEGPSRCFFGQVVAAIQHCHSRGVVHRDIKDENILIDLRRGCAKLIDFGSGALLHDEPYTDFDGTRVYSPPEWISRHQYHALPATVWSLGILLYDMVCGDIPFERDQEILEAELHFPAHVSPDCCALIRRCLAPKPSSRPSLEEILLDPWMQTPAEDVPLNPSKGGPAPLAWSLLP

BMPR2(h) = molecular target: T4, BMPR2(h) (Homo sapiens, UniProt Q13873)
T4 construct: purchased Eurofins (KinaseProfiler)
T4 sequence (Q13873 27-1038): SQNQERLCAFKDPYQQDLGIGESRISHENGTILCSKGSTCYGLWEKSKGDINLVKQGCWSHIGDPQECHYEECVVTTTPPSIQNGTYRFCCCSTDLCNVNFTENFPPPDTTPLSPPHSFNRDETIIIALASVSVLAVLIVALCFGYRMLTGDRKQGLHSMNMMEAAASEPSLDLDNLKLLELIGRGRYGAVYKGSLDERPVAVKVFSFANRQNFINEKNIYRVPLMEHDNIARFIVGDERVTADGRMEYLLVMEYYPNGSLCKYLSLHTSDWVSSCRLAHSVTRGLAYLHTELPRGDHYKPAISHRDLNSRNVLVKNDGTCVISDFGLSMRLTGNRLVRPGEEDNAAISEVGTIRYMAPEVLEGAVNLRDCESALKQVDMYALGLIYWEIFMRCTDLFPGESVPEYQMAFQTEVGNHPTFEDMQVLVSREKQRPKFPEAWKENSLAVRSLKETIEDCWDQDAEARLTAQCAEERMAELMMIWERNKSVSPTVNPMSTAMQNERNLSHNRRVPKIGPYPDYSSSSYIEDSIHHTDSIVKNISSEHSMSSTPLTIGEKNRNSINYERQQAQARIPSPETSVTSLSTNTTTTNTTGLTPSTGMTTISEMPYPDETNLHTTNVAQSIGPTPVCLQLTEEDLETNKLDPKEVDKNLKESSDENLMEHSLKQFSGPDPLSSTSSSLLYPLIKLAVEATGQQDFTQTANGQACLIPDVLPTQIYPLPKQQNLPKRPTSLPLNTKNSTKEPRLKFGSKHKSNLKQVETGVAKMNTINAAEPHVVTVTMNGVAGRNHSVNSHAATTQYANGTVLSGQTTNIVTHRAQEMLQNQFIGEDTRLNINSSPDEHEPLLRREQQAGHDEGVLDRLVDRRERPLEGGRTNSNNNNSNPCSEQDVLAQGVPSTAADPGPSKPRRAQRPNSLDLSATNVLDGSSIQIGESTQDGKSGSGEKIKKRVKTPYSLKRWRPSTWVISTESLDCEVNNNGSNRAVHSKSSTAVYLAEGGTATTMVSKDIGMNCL

LIMK1(h) = molecular target: T5, LIMK1(h) (Homo sapiens, UniProt P53667)
T5 construct: purchased Eurofins (KinaseProfiler)

Syk(h) = molecular target: T6, Syk(h) (Homo sapiens, UniProt P43405)
T6 construct: purchased Eurofins (KinaseProfiler)

TSSK3(h) = molecular target: T7, TSSK3(h) (Homo sapiens, UniProt Q96PN8)
T7 construct: purchased Eurofins (KinaseProfiler)
T7 sequence (Q96PN8 1-268): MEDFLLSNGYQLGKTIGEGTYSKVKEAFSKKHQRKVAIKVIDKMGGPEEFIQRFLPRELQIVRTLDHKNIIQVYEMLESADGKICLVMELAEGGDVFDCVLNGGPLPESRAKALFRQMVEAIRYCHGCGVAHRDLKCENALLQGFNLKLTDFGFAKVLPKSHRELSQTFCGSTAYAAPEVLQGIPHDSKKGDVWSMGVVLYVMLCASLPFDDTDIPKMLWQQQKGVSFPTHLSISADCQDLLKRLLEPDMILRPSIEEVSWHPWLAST

EphA4(h) = molecular target: T8, EphA4(h) (Homo sapiens, UniProt P54764)
T8 construct: purchased Eurofins (KinaseProfiler)
T8 sequence (P54764 20-986): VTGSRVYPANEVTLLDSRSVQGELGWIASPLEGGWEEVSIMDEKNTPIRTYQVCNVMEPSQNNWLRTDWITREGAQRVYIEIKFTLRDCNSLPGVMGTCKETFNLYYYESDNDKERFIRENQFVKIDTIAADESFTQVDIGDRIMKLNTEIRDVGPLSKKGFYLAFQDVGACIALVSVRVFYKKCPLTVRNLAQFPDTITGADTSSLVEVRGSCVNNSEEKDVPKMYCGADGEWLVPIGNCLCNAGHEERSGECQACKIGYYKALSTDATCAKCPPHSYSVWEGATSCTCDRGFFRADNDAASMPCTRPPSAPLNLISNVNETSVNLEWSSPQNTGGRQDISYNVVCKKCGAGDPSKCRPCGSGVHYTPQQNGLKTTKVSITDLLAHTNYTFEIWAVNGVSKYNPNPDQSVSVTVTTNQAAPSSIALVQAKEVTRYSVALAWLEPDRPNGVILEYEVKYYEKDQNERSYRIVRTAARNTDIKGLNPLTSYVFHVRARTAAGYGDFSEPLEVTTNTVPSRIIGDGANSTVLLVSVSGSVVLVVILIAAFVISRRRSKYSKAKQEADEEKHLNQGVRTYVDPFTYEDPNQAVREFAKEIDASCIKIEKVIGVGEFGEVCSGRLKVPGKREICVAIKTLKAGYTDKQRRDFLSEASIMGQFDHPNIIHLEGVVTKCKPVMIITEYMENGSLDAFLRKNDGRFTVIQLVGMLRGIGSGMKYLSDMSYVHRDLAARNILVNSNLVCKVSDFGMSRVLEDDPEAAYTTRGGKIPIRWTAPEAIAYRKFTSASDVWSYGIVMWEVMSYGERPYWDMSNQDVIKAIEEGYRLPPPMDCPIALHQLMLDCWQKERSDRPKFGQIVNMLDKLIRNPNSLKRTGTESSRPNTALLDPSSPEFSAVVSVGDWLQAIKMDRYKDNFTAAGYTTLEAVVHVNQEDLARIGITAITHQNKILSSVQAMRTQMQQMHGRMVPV

mTOR(h) = molecular target: T9, mTOR(h) (Homo sapiens, UniProt P42345)
T9 construct: purchased Eurofins (KinaseProfiler)

CK2α1(h) = molecular target: T10, CK2α1(h) (Homo sapiens, UniProt P68400)
T10 construct: purchased Eurofins (KinaseProfiler)
T10 sequence (P68400 whole entry): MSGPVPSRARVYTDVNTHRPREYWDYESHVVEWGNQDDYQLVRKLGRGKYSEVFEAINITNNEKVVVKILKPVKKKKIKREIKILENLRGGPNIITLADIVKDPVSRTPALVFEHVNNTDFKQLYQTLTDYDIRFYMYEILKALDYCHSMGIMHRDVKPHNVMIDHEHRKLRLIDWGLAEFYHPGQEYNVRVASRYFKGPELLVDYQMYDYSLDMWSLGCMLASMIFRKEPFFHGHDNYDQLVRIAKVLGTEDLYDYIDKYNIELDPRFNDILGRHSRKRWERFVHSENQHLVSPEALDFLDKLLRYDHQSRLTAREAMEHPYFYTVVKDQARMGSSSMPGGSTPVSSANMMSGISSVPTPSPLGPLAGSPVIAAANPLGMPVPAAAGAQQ

NEK6(h) = molecular target: T11, NEK6(h) (Homo sapiens, UniProt Q9HC98)
T11 construct: purchased Eurofins (KinaseProfiler)
T11 sequence (Q9HC98 whole entry): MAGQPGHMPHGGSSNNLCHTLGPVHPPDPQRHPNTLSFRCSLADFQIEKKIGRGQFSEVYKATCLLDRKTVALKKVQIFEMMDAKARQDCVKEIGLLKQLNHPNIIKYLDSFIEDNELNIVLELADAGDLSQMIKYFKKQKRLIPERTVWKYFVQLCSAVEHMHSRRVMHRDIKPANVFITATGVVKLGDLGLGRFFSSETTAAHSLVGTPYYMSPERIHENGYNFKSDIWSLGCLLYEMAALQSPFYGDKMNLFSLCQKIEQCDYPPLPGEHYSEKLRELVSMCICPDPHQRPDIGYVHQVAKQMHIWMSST

**Q.** With `COc1cc(OC)c(Cl)c(-c2ccc3c(NC(=O)c4ccc(N5CCNC(C)(C)C5)cc4)n[nH]c3n2)c1Cl` [3D185] as the compound, how does the inhibition at 0.01 µM ([1]; 10 nM) read?
**A.** -2%

**Q.** And the inhibition at 0.1 µM ([1]; 100 nM)?
**A.** 2%

**Q.** And the inhibition at 1 µM ([1]; 1000 nM)?
**A.** 2%

**Q.** And the inhibition at 0.01 µM (IRAK1(h); 10 nM)?
**A.** 4%

**Q.** What about the inhibition at 0.1 µM (IRAK1(h); 100 nM) of the same compound?
**A.** 0%

**Q.** And the inhibition at 1 µM (IRAK1(h); 1000 nM)?
**A.** 19%

**Q.** What about the inhibition at 0.01 µM (Pim-2(h); 10 nM) of the same compound?
**A.** 11%

**Q.** And the inhibition at 0.1 µM (Pim-2(h); 100 nM)?
**A.** 3%

**Q.** And the inhibition at 1 µM (Pim-2(h); 1000 nM)?
**A.** 6%

**Q.** And the inhibition at 0.01 µM (BMPR2(h); 10 nM)?
**A.** 5%

**Q.** And the inhibition at 0.1 µM (BMPR2(h); 100 nM)?
**A.** -2%

**Q.** What about the inhibition at 1 µM (BMPR2(h); 1000 nM) of the same compound?
**A.** 4%

**Q.** And the inhibition at 0.01 µM (LIMK1(h); 10 nM)?
**A.** 2%

**Q.** What about the inhibition at 0.1 µM (LIMK1(h); 100 nM) of the same compound?
**A.** 8%

**Q.** And the inhibition at 1 µM (LIMK1(h); 1000 nM)?
**A.** 0%

**Q.** What about the inhibition at 0.01 µM (Syk(h); 10 nM) of the same compound?
**A.** -3%

**Q.** And the inhibition at 0.1 µM (Syk(h); 100 nM)?
**A.** -5%

**Q.** What about the inhibition at 1 µM (Syk(h); 1000 nM) of the same compound?
**A.** 20%

**Q.** And the inhibition at 0.01 µM (TSSK3(h); 10 nM)?
**A.** 14%

**Q.** And the inhibition at 0.1 µM (TSSK3(h); 100 nM)?
**A.** 5%

**Q.** And the inhibition at 1 µM (TSSK3(h); 1000 nM)?
**A.** 5%

**Q.** What about the inhibition at 0.01 µM (EphA4(h); 10 nM) of the same compound?
**A.** 14%

**Q.** What about the inhibition at 0.1 µM (EphA4(h); 100 nM) of the same compound?
**A.** 5%

**Q.** What about the inhibition at 1 µM (EphA4(h); 1000 nM) of the same compound?
**A.** 13%

**Q.** What about the inhibition at 0.01 µM (mTOR(h); 10 nM) of the same compound?
**A.** -2%

**Q.** And the inhibition at 0.1 µM (mTOR(h); 100 nM)?
**A.** -2%

**Q.** What about the inhibition at 1 µM (mTOR(h); 1000 nM) of the same compound?
**A.** 4%

**Q.** And the inhibition at 0.01 µM (CK2α1(h); 10 nM)?
**A.** 23%

**Q.** And the inhibition at 0.1 µM (CK2α1(h); 100 nM)?
**A.** 21%

**Q.** And the inhibition at 1 µM (CK2α1(h); 1000 nM)?
**A.** 10%

**Q.** What about the inhibition at 0.01 µM (NEK6(h); 10 nM) of the same compound?
**A.** -7%

**Q.** And the inhibition at 0.1 µM (NEK6(h); 100 nM)?
**A.** 4%

**Q.** And the inhibition at 1 µM (NEK6(h); 1000 nM)?
**A.** 2%
